Results published in publication PMC12655819 (Pharmaceuticals, 2025).
Marks after values point to notes of the source that are not given here.

Experiments:
[1] = Pharmacokinetics from capillary blood collected with Mitra VAMS (vMPA, vMPAG); format: in vivo, human
Protocol: (§1) The AUC0–4, Tmax, and Cmax parameters were calculated using the R (version 4.5.1) package software (R Core Team, 2025), supported by RStudio (version 2025.05.1+513) from Posit PBC software (Boston, MA, USA). […] The vMPA and vMPAG capillary blood levels were corrected using formulas validated in our department (partially published by Kocur et al.) and expressed as estimated capillary plasma concentrations. […] Individual PK profiles for each patient included in the study are provided in the Supplementary File (Figures S4 and S5).
Subsequently, the tip (after at least 1 h of drying) was placed in an 1.5 mL Eppendorf-type test tube (Eppendorf AG, Hamburg, Germany) containing 150 μL of pure deionized water. Next, the test tube was shaken at room temperature for 1 h using the automatic rotary vortex. Subsequently, 10 μL of IS solution and 150 μL of the precipitation mixture were added. The sample was then processed as described in Section 4.3.4. Sample processing was carried out at the Department of Drug Chemistry, Pharmaceutical and Biomedical Analysis, Medical University of Warsaw, Poland [21].
(§2) From each patient (if they consented to all sampling types), four samples were collected simultaneously at all defined time points of the dynamic PK profile (0, 0.5, 1, 2, and 4 h after drug administration). Whole blood was collected using standard venipuncture by a phlebotomist into a K3-EDTA test tube (Sarstedt, Nümbrecht, Germany). Plasma for analytical determination was obtained by centrifuging a portion of the whole blood and stored at −40 °C until assay. At the same time, 10 µL capillary blood samples were collected from a finger prick using the Mitra™ device (VAMS samples were stored in light-protected aluminum zip bags with desiccant at room temperature).

[2] = Pharmacokinetics from dried saliva collected with Mitra VAMS (vsMPA, vsMPAG); format: in vivo, human
Protocol: as §1
Samples were sonicated (36 °C, 30 min), vortexed (15 min), and frozen (−20 °C, 15 min). After centrifugation (10 min, 25,155× g), 350 µL of supernatant was transferred to a total recovery borosilicate vial (Finneran, Vineland, NJ, USA) and evaporated to dryness under a stream of nitrogen (40 °C) using Ultravap® Levante (Porvair, Hampshire, Great Britain). The residue was reconstituted in 150 µL of mobile phase A, filtered in a Verex™ vial, and 5 µL was injected into the LC–MS/MS system. Analyses were performed at the Department of Drug Chemistry, Pharmaceutical and Biomedical Analysis, Medical University of Warsaw, Poland.
(§3) Additionally, the unstimulated saliva samples were simultaneously collected using the Salivette® device (Sarstedt, Nümbrecht, Germany) and Mitra™ 20 µL microsampling tips (Neoteryx/Trajan, Torrance, CA, USA (all saliva samples simultaneously to plasma and capillary blood sampling: 0, 0.5, 1, 2, and 4 h after drug administration). Patients had not eaten for at least 30 min before saliva collection, and their mouths were rinsed with water. The study was conducted in accordance with the Declaration of Helsinki and the International Council for Harmonization Guideline for Good Clinical Practice. The protocol was approved by the Bioethics Committee of the Children’s Memorial Health Institute, Warsaw, Poland (approval No. 15/KBE/2023, with subsequent amendments). Written informed consent was obtained from all participants and their legal guardians.

[3] = cited from earlier work
[4] = Pharmacokinetics from liquid (wet) saliva collected with Salivette (sMPA, sMPAG); format: in vivo, human
Protocol: as §1
The concentrations of sMPA and sMPAG in saliva were determined using a previously described LC-MS/MS method. Briefly, 100 µL of saliva was used for analysis. […] Samples were vortexed and evaporated to dryness. The dry residues were reconstituted in 100 μL of a mobile phase consisting of a 1:4 (v/v) mixture of methanol and water, both of which contained 0.1% formic acid. After double centrifugation, the samples were analyzed using a Shimadzu Ultra-Performance Liquid Chromatography (UPLC) system (Shimadzu Co., Kyoto, Japan) coupled with a triple quadrupole mass spectrometer (LCMS-8030; Simadzu Co., Kyoto, Japan). The method was linear over the concentration range of 2–500 μg/L for both sMPA and sMPAG. This part of the work was carried out with the support of the Centre of Innovative Pharmaceutical Technology, Poznan University of Medical Sciences (Poznan, Poland).
as §3

[5] = Stability of analytes in dried saliva Mitra VAMS tips; format: physicochemical; conditions: dried saliva on Mitra VAMS tips, room temperature (light-protected with desiccant), n=6
Protocol: Stability testing, a crucial component of method development and validation, was conducted through various experiments, including storage stability in the autosampler and stability of analytes in VAMS tips under different stress conditions. Analyte stability is deemed acceptable if the differences stay within the nominal range of ±15%. Additionally, the reproducibility of the injection was assessed during autosampler stability testing.

[6] = Pharmacokinetics from plasma unbound levels in plasma ultrafiltrate (fMPA, fMPAG); format: in vivo, human; conditions: free level in plasma ultrafiltrate
Protocol: as §1
Next, the sample was centrifuged at 3000× g for 5 min at ambient conditions, and the supernatant was transferred into a chromatographic vial. Sample processing was performed at the Department of Drug Chemistry, Pharmaceutical and Biomedical Analysis, Medical University of Warsaw, Poland.
as §2

[7] = normalized to MMF dose, n = 20, mean (range)

In the case of `COc1c(C)c2c(c(O)c1C/C=C(\C)CCC(=O)O)C(=O)OC2` [MPA, Mycophenolic acid], the concentration at 0 h ([1]; human, 0 h (pre-dose), n = 20, mean ± SD, read-out: C0 concentration) is reported as 1800 ± 1300 ng/mL, the concentration at 0.5 h ([1]; human, 0.5 h post-dose, n = 20, mean ± SD, read-out: C0.5 concentration) is reported as 9660 ± 8960 ng/mL and the concentration at 1 h ([1]; human, 1 h post-dose, n = 20, mean ± SD, read-out: C1 concentration) is reported as 10100 ± 5970 ng/mL. It also gave a concentration at 2 h ([1]; human, 2 h post-dose, n = 20, mean ± SD, read-out: C2 concentration) of 4430 ± 3000 ng/mL, a concentration at 4 h ([1]; human, 4 h post-dose, n = 20, mean ± SD, read-out: C4 concentration) of 1770 ± 2010 ng/mL and an AUC(0-t) ([1]; human, corrected to estimated capillary plasma concentration, n = 20, mean (range)) of 21400 ng·h/mL. For the same compound, the Cmax ([1]; human, corrected to estimated capillary plasma concentration, pediatric renal transplant recipients (n = 20) on MMF, mean (range), read-out: Cmax) was 12900 ng/mL, the Tmax ([1]; human, pediatric renal transplant recipients (n = 20) on MMF, mean (range), read-out: Tmax) was 46.8 min and the “AUC(0–4) Normalized to Drug Dose” value [1, 7] was 68.95 (20.71–444.79) ^d mg × h/mL × g. The “AUC(0–4) Normalized to Drug Dose” value ([2]; dried saliva (Mitra VAMS), normalized to MMF dose, n = 20, mean (range)) was 305.78 (33.88–2937.03) ^c µg × h/mL × g, the Cmax ([2]; human, dried saliva (Mitra VAMS 20 µL), pediatric renal transplant recipients (n = 20) on MMF, 0–4 h post-dose, mean (range), read-out: Cmax) was 84.1 ng/mL and the concentration at 0 h ([2]; human, dried saliva (Mitra VAMS), 0 h (pre-dose), n = 20, mean ± SD, read-out: C0 concentration) was 7.54 ± 4.89 ng/mL. The concentration at 0.5 h ([2]; human, dried saliva (Mitra VAMS), 0.5 h post-dose, n = 20, mean ± SD, read-out: C0.5 concentration) was 27.7 ± 9.14 ng/mL, the concentration at 1 h ([2]; human, dried saliva (Mitra VAMS), 1 h post-dose, n = 20, mean ± SD, read-out: C1 concentration) was 52.2 ± 40.9 ng/mL and the concentration at 2 h ([2]; human, dried saliva (Mitra VAMS), 2 h post-dose, n = 20, mean ± SD, read-out: C2 concentration) was 17.1 ± 16.7 ng/mL. The concentration at 4 h ([2]; human, dried saliva (Mitra VAMS), 4 h post-dose, n = 20, mean ± SD, read-out: C4 concentration) was 7.25 ± 8.03 ng/mL, the Tmax ([2]; human, dried saliva (Mitra VAMS), pediatric renal transplant recipients (n = 20) on MMF, mean (range), read-out: Tmax) was 51 min and the “increase in free fraction” value ([3]; displacement by MPAG in severe renal impairment) was 7%. The “affinity for plasma proteins (binding)” value ([3]; general statement of the introduction) was 97–99%, the “time of peak plasma concentration after administration” value ([3]; plasma) was 1 to 2 h and the unbound fraction ([3]; typical range) was 1 to 2.5%. For the same compound, the concentration at 0 h ([4]; human, unstimulated, Salivette, wet saliva, 0 h (pre-dose), n = 20, mean ± SD, read-out: C0 concentration) was 8.24 ± 5.66 ng/mL, the concentration at 0.5 h ([4]; human, unstimulated, Salivette, wet saliva, 0.5 h post-dose, n = 20, mean ± SD, read-out: C0.5 concentration) was 27.2 ± 7.86 ng/mL and the concentration at 1 h ([4]; human, unstimulated, Salivette, wet saliva, 1 h post-dose, n = 20, mean ± SD, read-out: C1 concentration) was 51.6 ± 45.8 ng/mL. For the same compound, the concentration at 2 h ([4]; human, unstimulated, Salivette, wet saliva, 2 h post-dose, n = 20, mean ± SD, read-out: C2 concentration) was 17.7 ± 16.1 ng/mL, the concentration at 4 h ([4]; human, unstimulated, Salivette, wet saliva, 4 h post-dose, n = 20, mean ± SD, read-out: C4 concentration) was 8 ± 9.49 ng/mL and the AUC(0-t) ([4]; human, unstimulated, Salivette, wet saliva, pediatric renal transplant recipients (n = 20) on MMF, mean (range)) was 107 ng·h/mL. For the same compound, the Tmax ([4]; human, unstimulated, Salivette, wet saliva, pediatric renal transplant recipients (n = 20) on MMF, mean (range), read-out: Tmax) was 51 min, the Cmax ([4]; human, wet saliva (unstimulated, Salivette), pediatric renal transplant recipients (n = 20) on MMF, 0–4 h post-dose, mean (range), read-out: Cmax) was 83.5 ng/mL and the “AUC(0–4) Normalized to Drug Dose” value ([4]; wet saliva, normalized to MMF dose, n = 20, mean (range)) was 300.18 (32.29–2716.80) ^c µg × h/mL × g. It also gave a recovery at 1 week ([5]; HQC) of 97.2%, a recovery at 2 weeks ([5]; HQC) of 96% and a recovery at 24 hours ([5]; HQC) of 99.9%. It also gave a recovery at 3 days ([5]; HQC) of 100%, a recovery at 1 week ([5]; LQC) of 98% and a recovery at 2 weeks ([5]; LQC) of 95.6%. For the same compound, the recovery at 24 hours ([5]; LQC) was 101%, the recovery at 3 days ([5]; LQC) was 99.1% and the “AUC(0–4) Normalized to Drug Dose” value [6, 7] was 0.596 (0.042–1.577) ^d mg × h/mL × g. For the same compound, the concentration at 0 h ([6]; human, plasma ultrafiltrate (unbound level in EDTA plasma), 0 h (pre-dose), n = 20, mean ± SD, read-out: C0 concentration) was 22 ± 16 ng/mL, the concentration at 0.5 h ([6]; human, plasma ultrafiltrate (unbound level in EDTA plasma), 0.5 h post-dose, n = 20, mean ± SD, read-out: C0.5 concentration) was 104 ± 125 ng/mL and the concentration at 1 h ([6]; human, plasma ultrafiltrate (unbound level in EDTA plasma), 1 h post-dose, n = 20, mean ± SD, read-out: C1 concentration) was 149 ± 146 ng/mL. For the same compound, the concentration at 2 h ([6]; human, plasma ultrafiltrate (unbound level in EDTA plasma), 2 h post-dose, n = 20, mean ± SD, read-out: C2 concentration) was 49 ± 41 ng/mL, the concentration at 4 h ([6]; human, plasma ultrafiltrate (unbound level in EDTA plasma), 4 h post-dose, n = 20, mean ± SD, read-out: C4 concentration) was 31 ± 50 ng/mL and the Cmax ([6]; human, plasma ultrafiltrate (unbound level in EDTA plasma), pediatric renal transplant recipients (n = 20) on MMF (CellCept), steady state, 0–4 h post-dose, mean (range), read-out: Cmax) was 160 ng/mL. The AUC(0-t) ([6]; human, plasma ultrafiltrate (unbound level in EDTA plasma), pediatric renal transplant recipients (n = 20) on MMF, mean (range)) was 276 ng·h/mL and the Tmax ([6]; human, plasma ultrafiltrate (unbound level in EDTA plasma), pediatric renal transplant recipients (n = 20) on MMF, mean (range), read-out: Tmax) was 54 min.
